# Measurements published in US20080311103A1, “Anti-Inflammatory Peptides and Methods of Use Thereof” (YEDA RESEARCH AND DEVELOPMENT CO. LTD. at THE WEIZMANN …, priority 2004, published 2008).
# Legend:
# T cells = assay: Chemotaxis assay: T cell migration toward SDF-1α; format: cell-based; conditions: concentration range 10-1000 ng/ml; SDF-1α 250 ng/ml; 3 hr
# Procedure: The migration of ^51-[Cr]-labeled T cells was examined in […] Transwell chemotaxis apparatus (6.5-mm diameter; Corning, N.Y.), consisting of two compartments separated by polycarbonate filters (5 μm pore size) pretreated (1 hr, 37° C.) with FN (25 μg/ml). ^51-[Cr]-labeled T cells (2×10^5 in 100 μl of RPMI containing 0.1% BSA and antibiotics), which were pre-incubated with the indicated concentrations of peptides (30 min, 37° C.), were added to the upper chambers. The bottom chambers contained 0.6 ml of the same media, with or without human Stromal cell-Derived Factor-1α (SDF-1α; 250 ng/ml). After incubation at 37° C. for 3 hr (7.5% CO2-humidified atmosphere), cells that had transmigrated into the lower wells were collected, centrifuged, and lysed (in 100 μl of distilled water containing 1 M NaOH and 0.1% Triton X-100), and the radioactivity in the resulting supernatants was determined with a γ-counter. The percentage (±SD) of cell migration was calculated as the radioactivity counts in the lysates of the lower chambers (representative of the migrating cells) divided by the total counts (representative of 2×10^5 cells).
# Jurkat and THP-1 cells = assay: TNFα secretion by PMA/PHA induced Jurkat and THP-1 cells; format: cell-based, human; conditions: peptide 1 μg/ml; 48 hours; ELISA
# Procedure: Jurkat cells human T cell lymphoma line) (2×10^6 cells/ml) cultured in RPMI-1640 supplemented with 10% FCS were activated with PMA (50 ng/ml) and phytohaemagglutinin PHA (4 µg/ml) for 6 hours at 37° C. (7.5% CO2-humidified atmosphere). Thereafter, the cells were washed, plated on 24-well plates (10^6 cells/well in 0.5 ml), and incubated (1 hour at 37° C., 7.5% CO2-humidified atmosphere) with the indicated concentrations of peptides 1-5. Following the incubation, THP-1 cells (human monocytic cell line derived from a patient with acute monocytic leukaemia; 1.25×10^5 cells/0.5 ml/well) were added to the wells. After 48 hours, the supernatants were collected and their TNF[…] content was determined by ELISA using anti TNF[…] mAb (Pharmingen; San Diego, Calif.) according to the manufacturer's instructions.
# BALB/C mice = assay: TNBS-induced colitis model of inflammatory bowel disease (IBD); format: in vivo, mouse; conditions: 50 μg/mouse SC daily; day 7 after TNBS
# Procedure: BALB/C mice, which were anesthetized for 5-10 min, received by intrarectal administration, 30 μl of a solution of 2,4,6-trinitrobenzene sulfonic acid (TNBS; 100 mg/kg) dissolved in 0.9% NaCl and mixed with an equal volume of ethanol (50% ethanol). Animals were killed 7 days after TNBS administration.
# Wound fluid peptides were administered once daily by subcutaneous (SC) administration starting 1 day before the induction of colitis and every day for the next 7 days as follows:
# Treatment with the wound fluid peptides was evaluated at day 7 by determination of macroscopic inflammation scores. The colon of each mouse was examined under a dissecting microscope to evaluate the macroscopic lesions according to the Wallace criteria. The Wallace score lists macroscopic colon lesions on a scale from 0 to 10 based on features reflecting inflammation, such as hyperemia, thickening of the bowel, and extent of ulceration (Wallace, J. L., et al. 1989, Gastroenterology, 96:29).
sequence,measurement,setting,value
"WDNLEKETEGL [peptide No. 3, residues 96-106 of Apo A-I; identified in wound fluids, then synthesized]",inhibition of T cell transmigration toward SDF-1α,T cells,did not show a significant inhibition
same,inhibition of TNFα secretion by Jurkat and THP-1 cells compared to PMA/PHA alone,Jurkat and THP-1 cells,50%
same,"Wallace score (macroscopic inflammation score, scale 0 to 10)",BALB/C mice,4.0±1.3
